Experimental data as given in patent publication US20230293407A1, “Compositions Comprising (Bio)-Alkanediols with Antimicrobials for Product Protection” (Symrise AG, priority 2020, published 2023).

Assays:
[1] = maximum water solubility of alkanediols, visual observation; format: physicochemical; settings: ambient temperature after 24 h storage at 5° C.
Excerpt: The water solubility of a substance is the saturation mass concentration of the substance in water at a given temperature. The determination of the solubility in water relates to essentially pure substances which are stable in water and not volatile. The determination of the water solubility of the alkanediols is further described in the following Example 2.
For the determination of the maximum water solubility of an alkanediol, water and different concentrations of the respective alkanediol were blended by stirring. […] The determination of whether the alkanediol has dissolved in water is based entirely on visual observation.

Candida albicans = assay: preservation efficacy test (PET), European Pharmacopoeia 5.1.3; format: cell-based; settings: for count at 2 days / count at 7 days / count at 14 days / count at 28 days: CA, use concentration in label
bacteria = assay: preservation efficacy test (PET), overview of the effect against bacteria; format: cell-based; settings: PET in formulation, result in words on Table 7
Aspergillus brasiliensis = assay: preservation efficacy test (PET), European Pharmacopoeia 5.1.3; format: cell-based; settings: for count at 2 days / count at 7 days / count at 14 days / count at 28 days: AB, use concentration in label
Pseudomonas aeruginosa = assay: as above; format: cell-based
Staphylococcus aureus = assay: as above; format: cell-based
Escherichia coli = assay: as above; format: cell-based; settings: for number of microorganisms, 14 days / number of microorganisms, 28 days: Escherichia coli (EC)
fungi/mould = assay: preservation efficacy test (PET), overview of the effect against fungi/mould; format: cell-based, Aspergillus brasiliensis; settings: PET in formulation, result in words on Table 7
yeast = assay: preservation efficacy test (PET), overview of the effect against yeast; format: cell-based, Candida albicans; settings: PET in formulation, result in words on Table 7
[2] = 28 days after inoculation, substance at given % in test formulation, listed as 0.2% 1,2-heptanediol
[3] = 2 days after inoculation, listed as 0.6% 1,2-heptanediol
[4] = 2 days after inoculation, listed as 0.8% 1,2-heptanediol
[5] = 7 days after inoculation, listed as 0.6% 1,2-heptanediol
[6] = 7 days after inoculation, listed as 0.8% 1,2-heptanediol
[7] = 14 days after inoculation, listed as 0.6% 1,2-heptanediol
[8] = 14 days after inoculation, listed as 0.8% 1,2-heptanediol
[9] = 28 days after inoculation, listed as 0.6% 1,2-heptanediol
[10] = 28 days after inoculation, listed as 0.8% 1,2-heptanediol
[11] = 28 days after inoculation, substance at given % in test formulation, listed as 0.4% 1,2-heptanediol
[12] = 14 days after inoculation, substance at given % in test formulation
[13] = 28 days after inoculation, substance at given % in test formulation
[14] = 2 days after inoculation, substance at given % in test formulation, listed as 0.2% 1,2-heptanediol
[15] = 7 days after inoculation, substance at given % in test formulation, listed as 0.2% 1,2-heptanediol

CCCCCC(O)CO (stereo not drawn) [1,2-heptanediol]
Maximum solubility in water [1]: 2.5 % by weight | CA germ count, 28 days (Candida albicans; [2]): 620.000 | count at 2 days (Candida albicans; [3]): 69.000 | count at 2 days (Candida albicans; [4]): 68.000 | count at 7 days (Candida albicans; [5]): 2.800 | count at 7 days (Candida albicans; [6]): 1 | count at 14 days (Candida albicans; [7]): 1 | count at 14 days (Candida albicans; [8]): 1 | count at 28 days (Candida albicans; [9]): 1 | count at 28 days (Candida albicans; [10]): 1 | number of microorganisms, 2 days (Candida albicans; PET in shampoo, Candida albicans (CA), 2 days after inoculation): 220.000 | number of microorganisms, 7 days (Candida albicans; PET in shampoo, Candida albicans (CA), 7 days after inoculation): 62.000 | number of microorganisms, 14 days (Candida albicans; PET in shampoo, Candida albicans (CA), 14 days after inoculation): 8.100 | number of microorganisms, 28 days (Candida albicans; PET in shampoo, Candida albicans (CA), 28 days after inoculation): 1 | antimicrobial efficacy against bacteria (bacteria): concentration dependent antimicrobial efficacy | AB germ count, 28 days (Aspergillus brasiliensis; [11]): 1 | count at 2 days (Aspergillus brasiliensis; [3]): 510.000 | count at 2 days (Aspergillus brasiliensis; [4]): 670.000 | count at 7 days (Aspergillus brasiliensis; [5]): 16.000 | count at 7 days (Aspergillus brasiliensis; [6]): 410.000 | count at 14 days (Aspergillus brasiliensis; [7]): 51.000 | count at 14 days (Aspergillus brasiliensis; [8]): 63.000 | count at 28 days (Aspergillus brasiliensis; 28 days after inoculation, listed as 0.4% 1,2-heptanediol): 1 | count at 28 days (Aspergillus brasiliensis; [9]): 1 | count at 28 days (Aspergillus brasiliensis; [10]): 1.100 | efficacy against Aspergillus brasiliensis (Aspergillus brasiliensis; PET in formulation, result in words on Table 7): significantly efficacy | number of microorganisms, 2 days (Aspergillus brasiliensis; PET in shampoo, Aspergillus brasiliensis (AB), 2 days after inoculation): 240.000 | number of microorganisms, 7 days (Aspergillus brasiliensis; PET in shampoo, Aspergillus brasiliensis (AB), 7 days after inoculation): 220.000 | number of microorganisms, 14 days (Aspergillus brasiliensis; PET in shampoo, Aspergillus brasiliensis (AB), 14 days after inoculation): 150.000 | number of microorganisms, 28 days (Aspergillus brasiliensis; PET in shampoo, Aspergillus brasiliensis (AB), 28 days after inoculation): 19.000 | PA germ count, 2 days (Pseudomonas aeruginosa; 2 days after inoculation, substance at given % in test formulation): 1 | PA germ count, 7 days (Pseudomonas aeruginosa; 7 days after inoculation, substance at given % in test formulation): 1 | PA germ count, 14 days (Pseudomonas aeruginosa; [12]): 1 | PA germ count, 28 days (Pseudomonas aeruginosa; [13]): 1 | count at 2 days (Pseudomonas aeruginosa; PA, 2 days after inoculation, use concentration in label): 1 | count at 7 days (Pseudomonas aeruginosa; PA, 7 days after inoculation, use concentration in label): 1 | count at 14 days (Pseudomonas aeruginosa; PA, 14 days after inoculation, use concentration in label): 1 | count at 28 days (Pseudomonas aeruginosa; PA, 28 days after inoculation, use concentration in label): 1 | SA germ count, 2 days (Staphylococcus aureus; [14]): 95.000 | SA germ count, 7 days (Staphylococcus aureus; [15]): 1 | SA germ count, 14 days (Staphylococcus aureus; [12]): 1 | SA germ count, 28 days (Staphylococcus aureus; [13]): 1 | number of microorganisms, 2 days (Staphylococcus aureus; PET in shampoo, Staphylococcus aureus (SA), 2 days after inoculation): 10 | number of microorganisms, 7 days (Staphylococcus aureus; PET in shampoo, Staphylococcus aureus (SA), 7 days after inoculation): 10 | number of microorganisms, 14 days (Staphylococcus aureus; PET in shampoo, Staphylococcus aureus (SA), 14 days after inoculation): 1 | number of microorganisms, 28 days (Staphylococcus aureus; PET in shampoo, Staphylococcus aureus (SA), 28 days after inoculation): 1 | number of microorganisms, 14 days (Staphylococcus aureus; PET, Staphylococcus aureus (SA), 14 days after inoculation): 1 | number of microorganisms, 28 days (Staphylococcus aureus; PET, Staphylococcus aureus (SA), 28 days after inoculation): 1 | count at 2 days (Staphylococcus aureus; SA, 2 days after inoculation, use concentration in label, listed as 0.6% 1,2-heptanediol): 1 | count at 2 days (Staphylococcus aureus; SA, 2 days after inoculation, use concentration in label, listed as 0.8% 1,2-heptanediol): 1 | count at 7 days (Staphylococcus aureus; SA, 7 days after inoculation, use concentration in label, listed as 0.6% 1,2-heptanediol): 1 | count at 7 days (Staphylococcus aureus; SA, 7 days after inoculation, use concentration in label, listed as 0.8% 1,2-heptanediol): 1 | count at 14 days (Staphylococcus aureus; SA, 14 days after inoculation, use concentration in label): 1 | count at 28 days (Staphylococcus aureus; SA, 28 days after inoculation, use concentration in label): 1 | EC germ count, 2 days (Escherichia coli; [14]): 38.000 | EC germ count, 7 days (Escherichia coli; [15]): 73 | EC germ count, 14 days (Escherichia coli; 14 days after inoculation, substance at given % in test formulation, listed as 0.2% 1,2-heptanediol): 1 | EC germ count, 14 days (Escherichia coli; 14 days after inoculation, substance at given % in test formulation, listed as 0.4% 1,2-heptanediol): 1 | EC germ count, 28 days (Escherichia coli; [2]): 1 | EC germ count, 28 days (Escherichia coli; [11]): 1 | count at 2 days (Escherichia coli; EC, 2 days after inoculation, use concentration in label, listed as 0.6% 1,2-heptanediol): 1 | count at 2 days (Escherichia coli; EC, 2 days after inoculation, use concentration in label, listed as 0.8% 1,2-heptanediol): 1 | count at 7 days (Escherichia coli; EC, 7 days after inoculation, use concentration in label, listed as 0.6% 1,2-heptanediol): 1 | count at 7 days (Escherichia coli; EC, 7 days after inoculation, use concentration in label, listed as 0.8% 1,2-heptanediol): 1 | count at 14 days (Escherichia coli; EC, 14 days after inoculation, use concentration in label): 1 | count at 28 days (Escherichia coli; EC, 28 days after inoculation, use concentration in label): 1 | number of microorganisms, 14 days (Escherichia coli; PET in shampoo, 14 days after inoculation): 200.000 | number of microorganisms, 28 days (Escherichia coli; PET in shampoo, 28 days after inoculation): 1 | number of microorganisms, 14 days (Escherichia coli; PET, 14 days after inoculation): 1 | number of microorganisms, 28 days (Escherichia coli; PET, 28 days after inoculation): 1 | antimicrobial efficacy against fungi (fungi/mould): concentration dependent antimicrobial efficacy | antimicrobial efficacy against yeast (yeast): concentration dependent antimicrobial efficacy
